Blank lines part the entries; values can stand above or below the compound they belong to.
Legend:
[1] = Quantification of M38 in pooled human plasma using a synthesized reference; assay type: in vivo; conditions: non-radiolabelled metabolite
[2] = system: human liver microsomes (HLM); assay: Incubation with HLMs and CYP-specific inhibitors; assay type: in vitro ADME; conditions: 10 μM 14C-ACT-1004-1239, 1 μM ketoconazole (CYP3A4 inhibitor)
[3] = system: CYP3A4; assay: Incubation with recombinant human CYP3A4; assay type: in vitro ADME; conditions: intersystem extrapolation scaling approach; 100 pmol/ml CYP, 10 μM, 60 min
Procedure: (§1) ^14C-ACT-1004-1239 was incubated for 60 min with 100 pmol/ml of the respective recombinant CYP (CYP1A1, CYP1A2, CYP2B6, CYP2C8, CYP2C9, CYP2C19, CYP2D6, or CYP3A4) in 100 mM phosphate buffer (pH 7.4) at a final ^14C-ACT-1004-1239 concentration of 10 μM. The incubation was initiated by addition of the pre-warmed NADPH-regenerating system and terminated by the addition of one volume equivalent acetonitrile. The NADPH-regenerating system was prepared as described in Incubation With HLMs and CYP-Specific Inhibitors. The organic solvent concentration in all incubations was kept at 0.5% (v/v). Control incubations in the absence of the NADPH-regenerating system or CYP, as well as incubations with control bactosomes, were performed in parallel under otherwise identical conditions. The samples were centrifuged for 10 min at 20,800 g and 10°C to obtain the supernatant which was used for HPLC analysis (as described in Analytical Method for Metabolite Profiling). The resulting data were further used to determine their contribution to the metabolic clearance in vitro by applying the intersystem extrapolation scaling approach as described by [Chen et al. (2011)]. […]

[4] = system: CYP2C19; assay: Incubation with recombinant human CYP2C19; assay type: in vitro ADME; conditions: intersystem extrapolation scaling approach; 100 pmol/ml CYP, 10 μM, 60 min
Procedure: as §1

[5] = system: CYP2C8; assay: Incubation with recombinant human CYP2C8; assay type: in vitro ADME; conditions: intersystem extrapolation scaling approach; 100 pmol/ml CYP, 10 μM, 60 min
Procedure: as §1

[6] = Pharmacokinetics of total 14C-radioactivity in human plasma (microtracer, AMS); assay type: in vivo; conditions: single oral 9.2 μg 14C-ACT-1004-1239 + 100 mg ACT-1004-1239
[7] = Metabolite profiling in human plasma, urine and feces pools (HPLC-AMS); assay type: in vivo; conditions: for Feces % of dose: based on geometric mean of total cumulative excretion in feces; for Urine % of dose: based on geometric mean of total cumulative excretion in urine
Procedure: For each subject, plasma samples were pooled based on the Hamilton pooling scheme ([Hamilton et al., 1981]) with samples collected within 72 h. Thereafter, a single cross-subject plasma pool was prepared by using a constant proportion of each individual Hamilton pool. Proportional pooling was applied for urine and homogenized feces samples. […] A single cross-subject pool for both excreta was prepared by taking a sample representing 10% of each individual pool to obtain a representative pool of at least 95% of the total excreted ^14C across all subjects.
Pooled plasma and feces samples were further purified by liquid-liquid extraction prior to HPLC analysis. The pooled plasma sample (4,000 μl) was extracted with 1200 μl acetonitrile:methanol (80:20, v/v) (Thermo Fisher Scientific, Waltham, MA, United States). After mixing for 1 min, the sample was centrifuged for 10 min at 3,750 rpm and 10°C […]. Thereafter, the supernatant was collected, dried, and aliquoted for analysis. These extraction steps were repeated two additional times with the remaining pellet to obtain a high extraction recovery. The homogenized feces sample (200 mg) was extracted by addition of 800 μl acetonitrile, followed by centrifugation for 5 min at 3,750 rpm and 4°C. The supernatant was collected and dried with nitrogen at 40°C. The remaining pellet was extracted by addition of 800 μl acetonitrile:water (1:1, v/v) followed by a drying process with nitrogen. The dried extract was reconstituted with acetonitrile:mobile phase A (see Analytical Method for Metabolite Profiling) (1:9, v/v) and vortexed for 5 min. […] Urine samples were directly used for analysis.
Metabolite profiles were generated by using HPLC together with an AMS detector. The plasma extract (120 μl), the feces extract (10 μl), and urine (100 μl) were injected onto the HPLC (Agilent 1290, Agilent Technologies, Santa Clara, CA, United States) equipped with a binary pump G4220A (Agilent Technologies), an autosampler G4226A (Agilent Technologies), a column compartment G1316C (Agilent Technologies), and a fraction collector G1364C (Agilent Technologies). […] Mobile phases consisted of 20 mM ammonium formate adjusted to pH 9.5 with ammonium hydroxide (phase A) and a 7:2:1 (v/v/v) mixture of acetonitrile, methanol, and mobile phase A (phase B). […] Following HPLC analysis, pools of HPLC fractions were prepared by taking equivalent portions of consecutive individual fractions for analysis with AMS (SSAMS-250, National Electrostatics Corp., Middleton, WI, United States). The amounts of ^14C in each fraction and fraction pool were summed and compared to the solution injected onto the HPLC for the determination of profile recovery.

[8] = ref Huynh et al., cited from earlier work
[9] = parameters: method as in Richard-Bildstein et al., 2020; conditions: ref Richard-Bildstein et al., 2020; cited from earlier work
[10] = system: carboxylesterases (i.e., CES1b, CES1c, and CES2); assay: Exploratory in vitro studies on enzymes catalyzing formation of M23; assay type: in vitro ADME; conditions: Idorsia data on file

- presence in pooled human plasma [1]: negligible
Structure (SMILES): N[C@H]1CCN(CC2CC2)C[C@@H]1C(=O)NC1(c2ncccn2)CC1 [M38]

Structure (SMILES): CC(=O)N1CCN(c2ccc(OCC3COC(Cn4ccnc4)(c4ccc(Cl)cc4Cl)O3)cc2)CC1 (stereo not shown) [ketoconazole]
- formation of M1 in presence of inhibitor [2]: completely abolished

- contribution of CYP3A4 to total M1 formation (total turnover in vitro) [3]: 94%
- contribution of CYP2C19 to M1 formation [4]: 5.2%
- contribution of CYP2C8 to M1 formation [5]: 1.2%
- plasma concentration of 14C-drug-related material after 72 h post-dose [6]: below the limit of quantification
- Feces % of dose [7]: 5.2%
- Urine % of dose [7]: 10.1%
Structure (SMILES): O=C(N[C@H]1CCN(CC2CC2)C[C@@H]1C(=O)NC1(c2ncccn2)CC1)c1cc(-c2ccc(F)cc2F)on1 [ACT-1004-1239]
- safety and tolerability profile ([8]; healthy humans, dose range 1–200 mg, single and multiple dose, 2021b, Huynh et al., 2021a): favorable safety and tolerability profiles
- time to reach maximum plasma concentration [tmax] ([8]; male and female subjects, oral 1-200 mg, 2021a, Huynh et al., 2021b): 1 to 3 h
- accumulation at steady state ([8]; multiple-dose, 2021a): almost no accumulation
- time to steady-state conditions of systemic exposure ([8]; multiple-dose, 2021a): ≤ 3 days
- absolute bioavailability ([8]; 2021b): 53%
- effect of food on the PK ([8]; 2021b): no relevant effect
- volume of distribution ([8]; 2021b): 183 L
- absorption in rats [9]: rapidly absorbed
- volume of distribution in rats [9]: in excess of total body water

- Urine + feces % of dose ([7]; 14C-radioactive dose excreted): 25.1%
- Feces % of dose [7]: 23.7%
- Urine % of dose [7]: 1.4%
Structure (SMILES): O=C(N[C@H]1CCNC[C@@H]1C(=O)NC1(c2ncccn2)CC1)c1cc(-c2ccc(F)cc2F)on1 [M1]

- Plasma % in sample (relative abundance, % of total radioactivity) ([7]; cross-subject plasma pool, samples within 72 h): 21.1%
Structure (SMILES): O=C(O)c1cc(-c2ccc(F)cc2F)on1 [M23]
- involvement of carboxylesterases in formation of M23 [10]: excluded the involvement of carboxylesterases
